Values of other authors in patent US20060009360A1, “New adjuvant composition” (priority 2004, published 2006).

Details: glyphosate in acid form

With O=C(O)CNCP(=O)(O)O [glyphosate, N-(phosphonomethyl)glycine] as the molecule, how does the water solubility read?
Its water solubility is “about 1.2%”.
